Measurements: patent US8507533B2, “Glucagon receptor modulators” (Pfizer Inc., priority 2011, dated 2013)

Assays:
[1] = target: T1, human glucagon receptor (Homo sapiens (Human), UniProt P47871); assay: Glucagon cAMP Assay (Cisbio cAMP detection); type: cell-based; conditions: CHOK1 cells stably transfected with the human glucagon receptor; block of glucagon induced cAMP production; Kb by modified Cheng-Prusoff equation
[2] = target: T1, human glucagon receptor; assay: Human Glucagon SPA Assay (binding of [125I]Glucagon-Cex); conditions: membrane from chem-1 cells stably transfected with the human glucagon receptor, Ki by Cheng-Prusoff equation
Protocol: The Glucagon SPA assay is used to determine the ability of test compounds to block the binding of glucagon-cex to the glucagon receptor. Test compounds are re-suspended and serially diluted in 100% DMSO. 1 μl of test compound at the desired concentrations is spotted into the appropriate wells of 96 well low binding white clear bottom plate (Corning). 1 μl of DMSO is spotted into total binding wells. 1 μl of a known glucagon antagonist at a concentration of 20 μM is added to non specific binding wells. […] All assay ingredients with the exception of test compounds are re-suspended in the following buffer; 50 mM Hepes pH 7.4; 5 mM MgCl2; 1 mM CaCl; 5% glycerol and 0.2% BSA. Following a 6-10 hr incubation at room temperature the amount of hot ligand bound to the cell membranes is determined by reading the plates on a Wallac Trilux radioactive emission detector. Data is analyzed using Pfizer's Data analysis program. IC50 values are then determined from the generated sigmoidal dose response curves. Ki values are calculated using Cheng-Prusoff equation. N is the number of times the compound was assayed.

T1 sequence (P47871 26-477): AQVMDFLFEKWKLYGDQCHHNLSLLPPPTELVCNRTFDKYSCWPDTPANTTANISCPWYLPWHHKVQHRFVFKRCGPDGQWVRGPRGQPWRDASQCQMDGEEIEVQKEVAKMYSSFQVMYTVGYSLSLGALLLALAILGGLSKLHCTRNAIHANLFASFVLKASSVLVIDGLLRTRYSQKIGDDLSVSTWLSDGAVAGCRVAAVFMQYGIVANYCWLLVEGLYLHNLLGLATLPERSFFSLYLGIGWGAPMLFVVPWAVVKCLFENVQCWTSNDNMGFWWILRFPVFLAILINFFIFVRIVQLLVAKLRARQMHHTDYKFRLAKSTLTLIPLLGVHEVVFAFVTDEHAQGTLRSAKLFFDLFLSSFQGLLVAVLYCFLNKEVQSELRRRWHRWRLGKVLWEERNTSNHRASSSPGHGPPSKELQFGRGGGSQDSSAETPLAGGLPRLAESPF

Structure (SMILES)	Kb [1] [nM]	Ki [2] [nM]
CC(C)(C)C(Nc1ccc(-n2cnc(C(F)(F)F)c2)nc1)c1ccc(C(=O)NCCC(=O)O)cc1 (racemic) [Example 181, (±)-3-(4-(2,2-dimethyl-1-((6-(4-(trifluoromethyl)-1H-imidazol-1-yl)pyridin-3-yl)amino)propyl)benzamido)propanoic acid]	195	87.2
O=C(O)CCNC(=O)c1ccc([C@H](CCC(F)(F)F)Nc2ccc(-n3cc(C(F)(F)F)cn3)nc2)cc1 (single isomer, unassigned; isomer 2) [Example 173, N-{4-[4,4,4-trifluoro-1-({6-[4-(trifluoromethyl)-1H-pyrazol-1-yl]pyridin-3-yl}amino)butyl]benzoyl}-beta-alanine, Isomer 2]	641	26.6
CC(C)(C)c1cn(-c2ccc(NC(c3ccc(C(=O)NCCC(=O)O)cc3)C3CCCC3)cn2)cn1 (racemic) [Example 122, (+/−)-3-(4-((6-(4-tert-butyl-1H-imidazol-1-yl)pyridin-3-ylamino)(cyclopentyl)methyl)benzamido)propanoic acid]	43	45.7
CCCC(Oc1ccc(-n2cc3cc(C)ccc3n2)cc1)c1ccc(C(=O)NCCC(=O)O)cc1 (stereo not shown) [Example 128, 3-(4-(1-(4-(5-methyl-2H-indazol-2-yl)phenoxy)butyl)benzamido)propanoic acid]	268	208
CC1(C)CC([C@@H](Nc2ccc(-n3cnc(C(F)(F)F)c3)nc2)c2ccc(C(=O)NCCC(=O)O)cc2)C1 (single isomer, unassigned) [Example 134, 3-(4-((3,3-dimethylcyclobutyl)(6-(4-(trifluoromethyl)-1H-imidazol-1-yl)pyridin-3-ylamino)methyl)benzamido)propanoic acid]	876	110
CCCC(Nc1ccc(-n2cc(C(F)(F)F)cn2)nc1)c1ccc(C(=O)NCCC(=O)O)cc1C (single isomer, unassigned) [Example 111, 3-(3-methyl-4-(1-(6-(4-(trifluoromethyl)-1H-pyrazol-1-yl)pyridin-3-ylamino)butyl)benzamido)propanoic acid]	2350	202
CCCC(Oc1ccc(-n2cc3cccc(C)c3n2)cc1)c1ccc(C(=O)NCCC(=O)O)cc1 (stereo not shown) [Example 125, 3-(4-(1-(4-(7-methyl-2H-indazol-2-yl)phenoxy)butyl)benzamido)propanoic acid]	144	98.2
O=C(O)CCNC(=O)c1ccc(C(Nc2ccc(-n3cc(C(F)(F)F)cn3)nc2)C2CCOCC2)cc1 (racemic) [Example 177, (±)-3-(4-((tetrahydro-2H-pyran-4-yl)((6-(4-(trifluoromethyl)-1H-pyrazol-1-yl)pyridin-3-yl)amino)methyl)benzamido)propanoic acid]	2340	432
CCCC(Nc1ccc(-n2cc(-c3ccccc3)cn2)nc1)c1ccc(C(=O)N(C)CCC(=O)O)cc1 (racemic) [Example 165, (+/−)-3-(N-methyl-4-(1-(6-(4-phenyl-1H-pyrazol-1-yl)pyridin-3-ylamino)butyl)benzamido)propanoic acid]	305	142
CC(C)(C)[C@H](Nc1ccc(-n2cc(C(F)(F)F)cn2)nc1)c1ccc(C(=O)NCCC(=O)O)cc1 (single isomer, unassigned; isomer 2) [Example 180, 3-(4-(2,2-dimethyl-1-((6-(4-(trifluoromethyl)-1H-pyrazol-1-yl)pyridin-3-yl)amino)propyl)benzamido)propanoic acid, Isomer 2]	45	10.3
CCCC(Nc1ccc(-n2cc(C(F)(F)F)cn2)nc1)c1ccc(C(=O)NCCC(=O)O)cc1F (single isomer, unassigned) [Example 109, 3-(3-fluoro-4-(1-(6-(4-(trifluoromethyl)-1H-pyrazol-1-yl)pyridin-3-ylamino)butyl)benzamido)propanoic acid]	1710	153
Cc1cc(OC(c2ccc(C(=O)NCCC(=O)O)cc2)C2CCC2)cc(C)c1-n1cc(C(F)(F)F)cn1 (racemic) [Example 151, (+/−)-3-(4-(cyclobutyl(3,5-dimethyl-4-(4-(trifluoromethyl)-1H-pyrazol-1-yl)phenoxy)methyl)benzamido)propanoic acid]	227	20.2
CC1(C)CC(C(Oc2cnc(-n3cc(C(F)(F)F)cn3)nc2)c2ccc(C(=O)NCCC(=O)O)cc2)C1 (single isomer, unassigned; isomer 1) [Example 156, 3-(4-((3,3-dimethylcyclobutyl)(2-(4-(trifluoromethyl)-1H-pyrazol-1-yl)pyrimidin-5-yloxy)methyl)benzamido)propanoic acid, Isomer 1]	246	251
O=C(O)CCNC(=O)c1ccc(C(Nc2ccc(-n3cc(C(F)(F)F)cn3)nc2)C2CCCCC2)cc1 (racemic) [Example 101, (+/−)-3-(4-(cyclohexyl(6-(4-(trifluoromethyl)-1H-pyrazol-1-yl)pyridine-3-ylamino)methyl)benzamido)propanoic acid]	79.3	17
CC(C)(C)[C@H](Nc1ccc(-n2cnc(C(F)(F)F)c2)nc1)c1ccc(C(=O)NCCC(=O)O)cc1 (single isomer, unassigned; isomer 1) [Example 182, 3-(4-(2,2-dimethyl-1-((6-(4-(trifluoromethyl)-1H-imidazol-1-yl)pyridin-3-yl)amino)propyl)benzamido)propanoic acid, Isomer 1]	424	156
Cc1nn(-c2ccc(N[C@H](c3ccc(C(=O)NCCC(=O)O)cc3)C3CCCC3)cn2)cc1Cl (single isomer, unassigned; isomer 2) [Example 192, 3-(4-((6-(4-chloro-3-methyl-1H-pyrazol-1-yl)pyridin-3-ylamino)(cyclopentyl)methyl)benzamido)propanoic acid, Isomer 2]	88.5	50.3
CCCC(Oc1ccc(-n2cc3ccc(C)cc3n2)cc1)c1ccc(C(=O)NCCC(=O)O)cc1 (stereo not shown) [Example 126, 3-(4-(1-(4-(6-methyl-2H-indazol-2-yl)phenoxy)butyl)benzamido)propanoic acid]	212	161
CC(C)(C)[C@H](Nc1ccc(-n2cnc(C(F)(F)F)c2)nc1)c1ccc(C(=O)NCCC(=O)O)cc1 (single isomer, unassigned; isomer 2) [Example 183, 3-(4-(2,2-dimethyl-1-((6-(4-(trifluoromethyl)-1H-imidazol-1-yl)pyridin-3-yl)amino)propyl)benzamido)propanoic acid, Isomer 2]	154	53.5
CCCC(Nc1ccc(-n2cc(C(F)(F)F)cn2)nc1)c1ccc(C(=O)NCCC(=O)O)cc1C (single isomer, unassigned) [Example 112]	126	143
CCCC(Oc1cc(C)c(-n2cc(C3CC3)cn2)c(C)c1)c1ccc(C(=O)NCCC(=O)O)cc1 (stereo not shown) [Example 144, (+\−)-3-(4-(1-(4-(4-cyclopropyl-1H-pyrazol-1-yl)-3,5-dimethylphenoxy)butyl)benzamido)propanoic acid]	174	62.6
Cc1cc(C(Nc2ccc(C(=O)NCCC(=O)O)cn2)C2CCCC2)cc(C)c1-n1cc(C(F)(F)F)cn1 (single isomer, unassigned; isomer 2) [Example 171, 3-(6-((cyclooentyl(3,5-dimethyl-4-(4-(trifluoromethyl)-1H-pyrazol-1-yl)phenyl)methyl)amino)nicotinamido)propanoic acid, Isomer 2]	150	28
Cc1cc(OC(c2ccc(C(=O)NCCC(=O)O)cc2)C2CCC2)cc(C)c1-n1cc(C(F)(F)F)cn1 (single isomer, unassigned) [Example 138, 3-(4-(cyclobutyl(3,5-dimethyl-4-(4-(trifluoromethyl)-1H-pyrazol-1-yl)phenoxy)methyl)benzamido)propanoic acid]	40	5.75
CCCC(Oc1cc(F)c(-n2cc(C(F)(F)F)cn2)c(F)c1)c1ccc(C(=O)NCCC(=O)O)cc1 (racemic) [Example 184, (+/−)-3-(4-{1-[3,5-difluoro-4-(4-trifluoromethyl-pyrazol-1-yl)-phenoxy]-butyl}-benzoylamino)-propionic acid]	321	240
CCCC(Oc1ccc(-n2cc3ccccc3n2)c(C)c1)c1ccc(C(=O)NCCC(=O)O)cc1 (single isomer, unassigned) [Example 116, 3-(4-(1-(4-(2H-indazol-2-yl)-3-methylphenoxy)butyl)benzamido)propanoic acid]	450	464
CCCC(Oc1ccc(-n2cc3ccc(F)cc3n2)cc1)c1ccc(C(=O)NCCC(=O)O)cc1 (racemic) [Example 186, (+/−)-3-(4-{1-[4-(6-fluoro-indazol-2-yl)-phenoxy]-butyl}-benzoylamino)-propionic acid]	192	175
Cc1cc([C@@H](CC(C)C)Nc2ccc(C(=O)NCCC(=O)O)cn2)cc(C)c1-n1cc(C(F)(F)F)cn1 [Example 168, (R)-3-(6-((1-(3,5-dimethyl-4-(4-(trifluoromethyl)-1H-pyrazol-1-yl)phenyl)-3-methylbutyl)amino)nicotinamido)propanoic acid]	185	27.4
